Reference: patent publication US6410508B1 (priority 1998, dated 2002)

Assays:
[1] = system: fetal radius and ulna bone explants; test: Fetal long bone resorption assay (45Ca release); assay type: cell-based, rat; conditions: 10 nM PTH, GIP 10 nM
Protocol: Pregnant Sprague-Dawley rats (Charles River Laboratories, Kingston, N.Y.) were injected with 200 μCi^45Ca on day 18 of gestation and killed one day later to remove the labeled fetal radius and ulna. […] Medium was changed every 3 days and ^45Ca was measured after every culture period. Resorption is expressed as the ratio of ^45Ca released from treated versus control bones.

[2] = system: SaOS2 cells; test: Collagen type I mRNA expression by northern blot in SaOS2 cells; assay type: cell-based, human
Protocol: After 24 hourg, total RNA was extracted and probed with a collagen type I specific probe. The autoradiographs were then scanned and the densitometry quantified on a Sun Sparc station using Bioimage software. (n=4, *=p<0.001). […] The densitometry of four different experiments was summed and is expressed as a bar graph; *=p<0.001 vs control, as a function of time, in FIG. 2A.
After 24 hours, total RNA was extracted from cells using Trizol. RNA (20 μg) was electrophoresed on a 1.2% agarose-formaldehyde gel and transferred to a nylon filter. The blots were hybridized overnight at 65° C. with a ^32P-labeled probe (10^6 cpm/ml), labeled by the random-priming method and washed at a maximum stringency. Blots were exposed to Kodak XAR 5 film and analyzed by densitometry, quantified on a Sun Sparc station using Bioimage software. (n=4, *=p<0.001). The collagen densitometry was normalized to GAPDH, a housekeeping gene, found not to change in response to GIP.
Total RNA was extracted from cells using Trizol (Gaithersburg, Md.). RNA was stored at −70° C. until use. RNA (20 μg) was electrophoresed on a 1.2% agarose-formaldehyde gel and transferred to a nylon filter. The blots were hybridized overnight at 65° C. with a ^32P-labeled probe (10^6 cpm/ml), labeled by the random-priming method and washed at maximum stringency. Hybridization was carried out in a solution of 7% SDS, 1% BSA, 1 mM EDTA, 250 mM Na2HPO4. The hybridized filters were washed with four 5 min washes of 2×SSC, 0.1% SDS at room temperature and twice in 0.1×SSC, 0.1% SDS for 30 min at 65° C. The blots were then exposed to Kodak XAR 5 film. The probes used were GAPDH (ATCC clone 57090), collagen 1 (i.m.a.g.e. clone# 308919) and a human GIPR fragment derived by PCR corresponding to transmembrane domains 2 to 7.

[3] = system: SaOS2 cells; test: Intracellular calcium measurement with fura-2 in SaOS2 cells; assay type: cell-based, human; conditions: fura-2, dose-dependent response
Protocol: (§1) Peak increases in intracellular calcium from four different experiments were calculated. Data is expressed as mean±SEM; *=p<0.001; **=p<0.001. […] Cellular cAMP was measured with a commercially available radioimmunoassay (Biomedical Technologies, Stoughton, Mass.). Data is expressed as mean+SEM; **=p<0.001.
Intracellular calcium measurements were made as described by Gasalla-Herraiz, et al., Biochem Biophys Res Commun 214:373-88 (1995). Briefly, SaOS2 cells were grown in 75 cm^2 flasks and removed by incubating in PBS/EGTA. Cells were loaded with the calcium sensitive dye fara-2AM in KRB, for 45 min at room temperature. The cells were then centrifuged and resuspended in KRB. After approximately 30 minutes at room temperature, to allow esterase cleavage of fura-2AM to fura-2, the cells were again centrifuged and placed in a cuvette in a dual-wavelength spectrophotometer (Photon Technologies International, South Brunswick, N.J.). Fluorescence was then measured using excitation wavelengths of 340 and 380 nm and an emission wavelength of 510 nm. Autoflourescence was measured in unloaded cells and this value subtracted from all the measurements.

[4] = target: receptors for GIP; conditions: pancreatic β cells; depending on the cell system and the source of GIP (human versus porcine); read-out: binding affinity; cited from earlier work
[5] = system: MG63 cells; test: Alkaline phosphatase activity in MG63 cells; assay type: cell-based, human
Protocol: Shown are the Means±SEM of triplicates of four different experiments. *=p<0.05; +=p<0.001.
Alkaline phosphatase (ALP) activity was measured using a commercially available assay kit (ALP […] Colorimetric test; Sigma Diagnostic, St. Louis, Mo.). This kit measures the conversion of p-nitrophenyl phosphate top-nitrophenol and inorganic phosphate. The change in absorbance at 405 nm is directly proportional to ALP activity. MG 63 cells were grown in 6 well plates incubated with the indicated agonist for the indicated times (medium was changed daily with readdition of fresh agonist) and samples collected. The kit reagents were added to the sample cuvette in the spectrophotometer at 30° C. and absorbances at 405 nm obtained at 1, 2 and 3 minutes. ALP activity (U/L) was determined using the change in absorbance with time and a millimolar absorptivity of p-nitrophenol at 405 nm of 18.45.

[6] = system: SaOS2 cells; test: Cellular cAMP content by radioimmunoassay in SaOS2 cells; assay type: cell-based, human; conditions: GIP 1 μM
Protocol: as §1
cAMP measurements were done as described by Isales, et al., Endocrinology 129:489-95 (1991). Briefly, SaOS2 cells were grown to confluence in 60 mm^2 dishes and placed in KRB for 24 hours before use. In order to facilitate the measurement of cAMP production, 1 mM isomethylbutylxanthine (IBMX) was added prior to agonist addition for 10 minutes, followed by incubation with agonist for 10 minutes. Incubations were stopped by addition of 5% TCA, left on ice for 15 minutes and the cell extract collected. The extracts were neutralized by addition of a 1:1 solution ice cold Freon/Tri-N-octylamine (4:1,v/v). Each sample was vortexed for at least 30 sec to ensure adequate mixing. The mixture was then centrifaged at 2,500 rpm for 20 minutes ([…]). The top aqueous phase containing the cAMP was collected. The pH of the upper phase was checked to ensure adequate neutralization. The samples were stored at −70° C. until analysis. cAMP was measured using a commercially available radioimmunoassay (Biomedical Technologies, Stoughton, Mass.). […]

[7] = system: ovariectomized (OVX) rat; test: Bone mineral density by DXA in ovariectomized and non-OVX rats; assay type: in vivo, Sprague-Dawley rats; conditions: six weeks
Excerpt: 1. Control. Five non-OVX rats received daily injections at the same time everyday (09:00) of saline vehicle for six weeks into the tail vein.
3. OVX. Six OVX rats received saline vehicle injected daily for six weeks.

CC[C@H](C)[C@H](NC(=O)[C@H](CO)NC(=O)[C@H](Cc1ccc(O)cc1)NC(=O)[C@H](CC(=O)O)NC(=O)[C@H](CO)NC(=O)[C@@H](NC(=O)[C@H](Cc1ccccc1)NC(=O)[C@@H](NC(=O)CNC(=O)[C@H](CCC(=O)O)NC(=O)[C@H](C)NC(=O)[C@@H](N)Cc1ccc(O)cc1)[C@@H](C)O)[C@@H](C)CC)C(=O)N[C@@H](C)C(=O)N[C@@H](CCSC)C(=O)N[C@@H](CC(=O)O)C(=O)N[C@@H](CCCCN)C(=O)N[C@H](C(=O)N[C@@H](Cc1c[nH]cn1)C(=O)N[C@@H](CCC(N)=O)C(=O)N[C@@H](CCC(N)=O)C(=O)N[C@@H](CC(=O)O)C(=O)N[C@@H](Cc1ccccc1)C(=O)N[C@H](C(=O)N[C@@H](CC(N)=O)C(=O)N[C@@H](Cc1c[nH]c2ccccc12)C(=O)N[C@@H](CC(C)C)C(=O)N[C@@H](CC(C)C)C(=O)N[C@@H](C)C(=O)N[C@@H](CCC(N)=O)C(=O)N[C@@H](CCCCN)C(=O)NCC(=O)N[C@@H](CCCCN)C(=O)N[C@@H](CCCCN)C(=O)N[C@@H](CC(N)=O)C(=O)N[C@@H](CC(=O)O)C(=O)N[C@@H](Cc1c[nH]c2ccccc12)C(=O)N[C@@H](CCCCN)C(=O)N[C@@H](Cc1c[nH]cn1)C(=O)N[C@@H](CC(N)=O)C(=O)N[C@H](C(=O)N[C@H](C(=O)N[C@@H](CCC(N)=O)C(=O)O)[C@@H](C)O)[C@@H](C)CC)C(C)C)[C@@H](C)CC [GIP, Glucose-dependent Insulinotropic Peptide]
PTH-induced bone resorption [1]: inhibits PTH-induced bone resorption
time course of GIP effect on collagen mRNA ([2]; 1 nM GIP, 0-12 hours): after six hours of stimulation
effect on collagen synthesis ([2]; higher doses (0.10, and 100 nM)): maximal effect
effect on collagen synthesis ([2]; lower GIP dose 0.1 nM): no effect
GIP concentration at which a significant increase in [Ca2+]i occurs [3]: 0.1 nM
Kd [4]: 0.3 to 30 nM
GIP concentration significantly increasing ALP activity [5]: 0.1 nM
onset of ALP activity increase ([5]; 0.1 nM GIP, 1-6 days): as early as two days after stimulation
GIP effect on ALP versus positive control ([5]; 0.1 nM GIP, control 1,25 vitamin D (10 ng/ml)+TGF-β (10 ng/ml)): larger than that observed with 1,25 vitamin D
ALP activity at higher doses versus 0.1 nM ([5]; GIP 1-10 nM): did not increase ALP activity any further
elevation in cellular cAMP content [6]: 710 % above control
bone density versus controls ([7]; OVX rats treated with GIP): not statistically different from controls
densitometry of the whole extremity ([7]; all experimental groups): no different among the various experimental groups
bone density versus untreated animals ([7]; non-OVX control rats, GIP 0.05 mg/kg daily): lower bone density than the untreated animals, this difference was not statistically significant
